Assay results from PubChem BioAssay (NCI).
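1) Cells in 96-well plates. 2) Compound, 48 h, 5 concentrations. 3) Linear interpolation between surrounding doses. 4) Unreached endpoint = highest concentration. Abbreviation: GI50, concentration required for 50% inhibition of growth. The concentration for full growth arrest is given as TGI.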

Columns and labels:
Experiment in all cases: inhibition of tumour cell growth, NCI panel, 48 h
SNB-19 CNS = test system: SNB-19 CNS
OVCAR-5 ovarian = test system: OVCAR-5 ovarian
SN12C renal = test system: SN12C renal
TK-10 renal = test system: TK-10 renal
CAKI-1 renal = test system: CAKI-1 renal
PC-3 prostate = test system: PC-3 prostate
OVCAR-4 ovarian = test system: OVCAR-4 ovarian
HL-60(TB) leukemia = test system: HL-60(TB) leukemia
UACC-257 melanoma = test system: UACC-257 melanoma
HOP-92 NSCLC = test system: HOP-92 NSCLC

| SMILES | GI50 (SNB-19 CNS) [µM] | TGI (SNB-19 CNS) [µM] | GI50 (OVCAR-5 ovarian) [µM] | TGI (OVCAR-5 ovarian) [µM] | GI50 (SN12C renal) [µM] | TGI (SN12C renal) [µM] | GI50 (TK-10 renal) [µM] | TGI (TK-10 renal) [µM] | GI50 (CAKI-1 renal) [µM] | TGI (CAKI-1 renal) [µM] | GI50 (PC-3 prostate) [µM] | TGI (PC-3 prostate) [µM] | GI50 (OVCAR-4 ovarian) [µM] | TGI (OVCAR-4 ovarian) [µM] | GI50 (HL-60(TB) leukemia) [µM] | TGI (HL-60(TB) leukemia) [µM] | GI50 (UACC-257 melanoma) [µM] | TGI (UACC-257 melanoma) [µM] | GI50 (HOP-92 NSCLC) [µM] | TGI (HOP-92 NSCLC) [µM] |
| --- | --- | --- | --- | --- | --- | --- | --- | --- | --- | --- | --- | --- | --- | --- | --- | --- | --- | --- | --- | --- |
| COc1ccc2sc3cccc(NCCN(C)C)c3c(=O)c2c1 | 2.78 | 14.1 | 3.42 | 14.5 | 3.36 | 13.4 | 4.06 | 14.3 | 3.72 | 15.5 | 2.96 | 11.4 | 3.72 | 16.5 | 2.16 | 4.74 | 1.78 | 3.32 | – | – |
| COC(=O)[C@@H](C)C[C@H](Cc1cn(C)c2ccccc12)NC(=O)c1csc([C@@H](C[C@H](C(C)C)N(C)C(=O)[C@@H](NC(=O)[C@H]2CCCCN2C)C(C)C)OC(C)=O)n1 | 0.00883 | > 16.7 | 0.0671 | > 16.7 | 0.0232 | > 16.7 | 2.77 | > 16.7 | – | – | 0.0139 | > 16.7 | 0.575 | > 16.7 | 0.00469 | 0.0194 | > 16.7 | > 16.7 | 0.0163 | 4.02 |
| O=C1/C(=N\O)c2ccccc2S1(=O)=O | – | > 100 | – | > 100 | – | > 100 | – | > 100 | – | 83.7 | – | – | – | > 100 | – | > 100 | – | > 100 | – | > 100 |
| c1ccc([CH2][Sn]([CH2]c2ccccc2)([O]c2cccc3cccnc23)[O]c2cccc3cccnc23)cc1 | 1.15 | 2.49 | 0.338 | 1.06 | 0.603 | 2.1 | 1.67 | 3.1 | 0.92 | 2.2 | – | – | 0.184 | 0.374 | 0.314 | > 100 | 0.302 | 0.836 | 1.19 | 2.46 |
| O=S(=O)([O-])c1ccc(N=Cc2ccccc2[O-])cc1.O=S(=O)([O-])c1ccc(N=Cc2ccccc2[O-])cc1.[O]=[U+2]=[O] | 66.4 | > 100 | > 100 | > 100 | > 100 | > 100 | 30.7 | 71.7 | – | – | – | – | > 100 | > 100 | – | – | > 100 | > 100 | > 100 | > 100 |
| Cc1ccc(S(=O)(=O)c2ccc(NC(=O)SCCC(=O)O)cc2)cc1 | – | > 100 | – | > 100 | – | > 100 | – | > 100 | – | > 100 | – | – | – | > 100 | – | > 100 | – | > 100 | – | – |
| CCN(CC)CCNc1ccc(C)c2sc3cc(Cl)ccc3c(=O)c12 | 1.74 | 3.51 | 1.61 | 3.1 | 1.68 | 3.44 | 2.2 | 3.77 | – | – | 1.54 | 3.01 | 1.95 | 5.13 | 1.81 | 3.71 | 1.92 | 3.42 | 0.665 | 2.24 |
| COc1ccc2c(c1)[n+]([O-])c(-c1ccc([N+](=O)[O-])cc1)c(N)[n+]2[O-] | – | > 100 | – | > 100 | – | > 100 | – | – | – | > 100 | – | – | – | > 100 | – | > 100 | – | > 100 | – | > 100 |
| O=C(COc1ccc(/C=C2\COc3ccccc3C2=O)cc1)Nc1nccs1 | 12.8 | 25.4 | 16.7 | 32.9 | 5.69 | 25.7 | 28.7 | 58.5 | 7.55 | 20.7 | 3.95 | 28.5 | 20.5 | 68.5 | 1.68 | 3.48 | 13.3 | 30.6 | – | – |
| O=C1c2[nH]cc(CNC3CN4CCC3CC4)c2C(=O)c2c1c(O)c1ccccc1c2O (stereo not given) | 2.92 | 12.4 | 2.01 | 3.78 | 1.06 | 15.5 | 0.266 | 1.19 | 0.612 | 2.05 | 1.21 | 3.41 | 16.3 | 55.7 | – | – | 31.7 | > 76.3 | 1.1 | – |
| CN(C)c1ccc(/C=C/C(=O)[O-])cc1.CN(C)c1ccc(/C=C/C(=O)[O-])cc1.[Cu+2] | – | > 100 | – | 60.3 | – | > 100 | > 100 | > 100 | – | > 100 | – | – | 14.9 | > 100 | – | > 100 | – | > 100 | – | – |
| COc1c(C)cc(O)cc1C=O | – | > 100 | – | > 100 | – | > 100 | – | > 100 | – | > 100 | – | – | – | > 100 | – | > 100 | – | > 100 | – | > 100 |
| O=[N+]([O-])c1ccc(C2CC(c3ccccc3Cl)=Nc3ccccc3S2)cc1 (stereo not given) | – | – | – | 62.7 | – | 17.4 | – | > 79.1 | – | > 73.5 | – | – | – | 24.5 | – | 6.36 | – | 35.5 | – | 29.5 |
| COC(=O)C1=Cc2cc(OC)c(OC)c(OC)c2[C@H](c2cc(OC)c(OC)c(OC)c2)C1C(=O)OC (stereo not given in full) | – | > 100 | – | > 100 | – | > 100 | – | > 100 | – | > 100 | – | – | – | > 100 | – | > 100 | – | > 100 | – | 74.5 |
| N.N.NCCCCCN.O=C([O-])CCl.O=C([O-])CCl.O=C([O-])CCl.O=C([O-])CCl.[Pt+4].[Pt+4] | 1.94 | 17.2 | 5.54 | 48.9 | 0.161 | 1.69 | 26.4 | > 100 | 1.2 | 7.55 | – | – | 10.2 | 48.3 | 1.43 | 11.2 | 9.12 | 94.6 | 23.7 | 51.6 |
